Experimental data as given in patent US6399782B1, “Benzimidazole inhibitors of fructose 1,6-bisphosphatase” (Metabasis Therapeutics, Inc., priority 1997, dated 2002).
Where a name gives a salt, the structure may show the parent alone.

What was measured:
[1] = Estimation of the oral bioavailability of prodrugs of phosphonic acids; type: in vivo; conditions: rat, prodrug by oral gavage approximately 20 or 40 mg/kg parent equivalents, urinary recovery of parent vs i.v. parent
Experimental: Prodrugs were dissolved in 10% ethanol/90% polyethylene glycol (mw 400) and administered by oral gavage at doses of approximately 20 or 40 mg/kg parent compound equivalents to 6-hour fasted, Sprague Dawley rats (220-240 g). The rats were subsequently placed in metabolic cages and urine was collected for 24 hours. The quantity of parent compound excreted into urine was determined by HPLC analysis. An ODS column eluted with a gradient from potassium phosphate buffer, pH 5.5 to acetonitrile was employed for these measurements. Detection was at 310-325 nm. […] Parent compounds were typically dissolved in dimethyl sulfoxide, and administered via the tail vein in animals that were briefly anesthetized with halothane.

mouse liver FBPase = biological target: T1, mouse liver FBPase (Mus musculus, UniProt Q9QXD6); assay: Inhibition of mouse liver FBPase; type: biochemical; conditions: partially purified mouse liver fraction
T1 construct: This partially purified fraction was used for enzyme assays; from tissue; host or cells: mouse liver, 45-75% ammonium sulfate fraction
T1 sequence (Q9QXD6 2-338 limits assumed): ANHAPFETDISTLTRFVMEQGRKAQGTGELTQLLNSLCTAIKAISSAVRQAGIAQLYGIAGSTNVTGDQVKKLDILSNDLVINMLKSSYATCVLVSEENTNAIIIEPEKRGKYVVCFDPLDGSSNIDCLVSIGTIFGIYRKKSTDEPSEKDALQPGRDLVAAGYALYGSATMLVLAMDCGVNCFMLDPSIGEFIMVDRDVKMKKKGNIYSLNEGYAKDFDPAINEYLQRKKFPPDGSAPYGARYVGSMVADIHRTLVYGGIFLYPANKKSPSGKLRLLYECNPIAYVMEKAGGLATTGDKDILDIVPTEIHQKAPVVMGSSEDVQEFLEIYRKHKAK
Experimental: Enzymatic activity was measured spectrophotometrically in reactions that coupled the formation of product (fructose 6-phosphate) to the reduction of dimethylthiazoldiphenyltetrazolium bromide (MTT) via NADP and phenazine methosulfate (PMS), using phosphoglucose isomerase and glucose 6-phosphate dehydrogenase as the coupling enzymes. Reaction mixtures (200 μl) were made up in 96-well microtitre plates, and consisted of 50 mM Tris-HCl, pH 7.4, 100 mM KCl, 5 mM EGTA, 2 mM MgCl2, 0.2 mM NADP, 1 mg/ml BSA, 1 mM MTT, 0.6 mM PMS, 1 unit/mL phosphoglucose isomerase, 2 units/mL glucose 6-phosphate dehydrogenase, and 0.150 mM substrate (fructose 1,6-bisphosphate). Inhibitor concentrations were varied from 0.01 μM to 10 μM.
Mouse liver FBPase was obtained by homogenizing freshly isolated mouse liver in 100 mM Tris-HCl buffer, pH 7.4, containing 1 mM EGTA, and 10% glycerol. […] This fraction was redissolved in the homogenization buffer and desalted on a PD-10 gel filtration column (Biorad) eluted with same. This partially purified fraction was used for enzyme assays. Both rat liver and mouse liver FBPase were assayed as described for human liver FBPase.

rat hepatocytes = assay: Inhibition of gluconeogenesis in rat hepatocytes; type: cell-based; conditions: glucose production from lactate/pyruvate, isolated rat hepatocytes, 1 hour
Experimental: Hepatocytes were prepared from overnight fasted Sprague-Dawley rats (250-300 g) according to the procedure of Berry and Friend (Berry, M. N., Friend, D. S., 1969, J. Cell. Biol. 43, 506-520) as modified by Groen (Groen, A. K., Sips, H. J., Vervoorn, R. C., Tager, J. M., 1982, Eur. J. Biochem. 122, 87-93). Hepatocytes (75 mg wet weight/mL) were incubated in 1 ml Krebs-bicarbonate buffer containing 10 mM Lactate, 1 mM pyruvate, 1 mg/mL BSA, and test compound concentrations from 1 to 500 μM. Incubations were carried out in a 95% oxygen, 5% carbon dioxide atmosphere in closed, 50-mL Falcon tubes submerged in a rapidly shaking water bath (37° C.). After 1 hour, an aliquot (0.25 mL) was removed, transferred to an Eppendorf tube and centrifuged. 50 μL of supernatant was then assayed for glucose content using a Sigma Glucose Oxidase kit as per the manufacturer's instructions.

| Compound | IC50 (mouse liver FBPase) [µM] | melting point | further results |
| --- | --- | --- | --- |
| 4-Amino-5-fluoro-7-bromo-1-isobutyl-2-(1-methoxymethyl-3-bispivaloyloxymethylphosphonate)benzimidazole [Compound 18.7] |  |  | % Oral bioavailability [1]: 6.9% |
| COC(=O)c1cccc(Cn2c(-c3ccc(P(=O)(O)O)o3)nc3c(N)cccc32)c1 [Compound 12.6, 4-Amino-1-(3-carbomethoxybenzyl)-2-[2-(5-phosphono)furanyl]benzimidazole] | > 20 | 198 to 202 °C |  |
| Nc1cccc2c1nc(-c1ccc(P(=O)(O)O)o1)n2CCCCl [Compound 12.35, 4-Amino-1-(3-chloropropyl)-2-[2-(5-phosphono)furanyl]benzimidazole] | > 20 |  |  |
| Nc1cccc2c1nc(-c1ccc(P(=O)(O)O)o1)n2Cc1ccoc1 [Compound 12.37, 4-Amino-1-(3-furanylmethyl)-2-[2-(5-phosphono)furanyl]benzimidazole] | 1.27 |  |  |
| CC(C)Cn1c(-c2ccc(P(=O)(O)O)o2)nc2c(N)c(Br)cc(Br)c21 [Compound 12.42, 4-Amino-5,7-dibromo-1-isobutyl-2-[2-(5-phosphono)furanyl]benzimidazole] |  |  | IC50 (rat hepatocytes): 14 µM |
| CC(C)Cn1c(-c2ccc(P(=O)(O)O)o2)nc2c(N)c(Br)ccc21 [Compound 12.44, 4-Amino-5-bromo-1-isobutyl-2-[2-(5-phosphono)furanyl]benzimidazole] |  |  | IC50 (rat hepatocytes): 14 µM |
| CC(C)Cn1c(-c2ccc(P(=O)(O)O)o2)nc2c(N)c(Cl)cc(Cl)c21 [Compound 12.50, 4-Amino-5,7-dichloro-1-isobutyl-2-(2-phosphono-5-furanyl)benzimidazole] |  | 205 to 207 °C | IC50 (rat hepatocytes; Hepatocyte): 17 µM |
| CC(C)Cn1c(-c2ccc(P(=O)(O)O)o2)nc2c(N)c(F)cc(Cl)c21 [Compound 12.54, 4-Amino-5-fluoro-7-chloro-1-isobutyl-2-(2-phosphono-5-furanyl)benzimidazole] | 1.07 | 220 to 225 °C |  |
| CC(C)Cn1c(-c2ccc(P(=O)(O)O)o2)nc2c(N)c(F)cc(Br)c21 [Compound 12.62, 4-Amino-5-fluoro-7-bromo-1-isobutyl-2-(2-phosphono-5-furanyl)benzimidazole] |  | 195 to 200 °C | IC50 (rat hepatocytes; Hepatocyte): 5 µM |
| CC(C)Cn1c(-c2ccc(P(=O)(O)O)o2)nc2c(N)c(F)c(Cl)cc21 [Compound 12.63, 4-Amino-5-fluoro-6-chloro-1-isobutyl-2-(2-phosphono-5-furanyl)benzimidazole] |  | 175 to 180 °C | IC50 (rat hepatocytes; Hepatocyte): 16 µM |
| CC(C)Cn1c(-c2ccc(P(=O)(O)O)o2)nc2c(N)c(F)cc(CCCO)c21 [Compound 12.79, 4-Amino-7-(propane-3-ol)-5-fluoro-1-isobutyl-2-(2-phosphono-5-furanyl)benzimidazole] | 0.72 | 170 to 173 °C | IC50 (rat hepatocytes; Hepatocyte): 1 µM |
| CC(C)Cn1c(-c2ccc(P(=O)(O)O)o2)nc2c(N)c(F)cc(CCCBr)c21 [Compound 12.80, 4-Amino-5-fluoro-7-(3-bromopropyl)-1-isobutyl-2-(2-phosphono-5-furanyl)benzimidazole] | 0.3 | 190 to 195 °C (dec.) | IC50 (rat hepatocytes; Hepatocyte): 1.6 µM |
| CC(C)Cn1c(-c2ccc(P(=O)(O)O)o2)nc2c(N)c(F)cc(CCCCBr)c21 [Compound 12.82, 4-Amino-5-fluoro-7-(4-bromobutyl)-1-isobutyl-2-(2-phosphono-5-furanyl)benzimidazole] | 0.3 | 200 to 220 °C (dec.) | IC50 (rat hepatocytes; Hepatocyte): 2.2 µM |
| CC(C)Cn1c(-c2ccc(P(=O)(O)O)o2)nc2c(N)c(F)cc(CCCN(C)C)c21 [Compound 12.84, 4-Amino-5-fluoro-7-(3-N,N-dimethylpropylamine)-1-isobutyl-2-(2-phosphono-5-furanyl)benzimidazole hydrobromide salt] | 0.5 |  |  |
| CC(C)Cn1c(-c2ccc(P(=O)(O)O)o2)nc2c(O)cccc21 [Compound 13.21, 4-Hydroxy-1-isobutyl-2-(2-phosphono-5-furanyl)benzimidazole] | > 20 | 244 to 245 °C |  |
| CC(C)(C)Cn1c(-c2ccc(P(=O)(O)O)o2)nc2c(F)cccc21 [Compound 13.25, 4-Fluoro-1-neopentyl-2-(2-phosphonofuranyl)benzimidazole] | > 20 |  |  |
| CC(C)(C)Cn1c(-c2ccc(P(=O)(O)O)o2)nc2ccc(Cl)cc21 [Compound 13.56, 6-Chloro-1-neopentyl-2-(2-phosphono-5-furanyl)benzimidazole] | > 20 |  |  |
| Cc1c(Cl)cc2c(nc(-c3ccc(P(=O)(O)O)o3)n2CC2CC2)c1C [Compound 13.61, 6-Chloro-4,5-dimethyl-1-cyclopropylmethyl-2-(2-phosphono-5-furanyl)benzimidazole] | > 20 | 219 to 220 °C |  |
| O=C(NCP(=O)(O)O)c1nc2ccccc2[nH]1 [Compound 13.66, N-(Phosphonomethyl)benzimidazole-2-carboxamide] | > 20 | 258 to 260 °C |  |
| CC(C)Cn1c(-c2ccc(P(=O)(O)O)o2)nc2cc(F)c(N)c(Br)c21 [Compound 13.69, 1-Isobutyl-5-fluoro-6-amino-7-bromo-2-(2-phosphono-5-furanyl)benzimidazole] |  | 208 to 211 °C |  |
| CC(=O)Nc1c(F)cc2nc(-c3ccc(P(=O)(O)O)o3)n(CC(C)C)c2c1Br [Compound 13.76, 1-Isobutyl-5-fluoro-6-acetamido-7-bromo-2-(2-phosphono-5-furanyl)benzimidazole] |  | 217 to 221 °C (dec.) |  |
| CCc1c(Cl)c(F)cc2[nH]c(-c3ccc(P(=O)(O)O)o3)nc12 [Compound 13.80, 5-Fluoro-6-chloro-7-ethyl-2-(2-phosphono-5-furanyl)benzimidazole] |  | 165 to 190 °C |  |
| Cc1c(C)c(C)c2[nH]c(-c3ccc(P(=O)(O)O)o3)nc2c1C [Compound 13.82, 4,5,6,7-Tetramethyl-2-(2-phosphono-5-furanyl)benzimidazole] |  | 202 to 206 °C |  |
| Cc1c(Cl)cc2c(nc(-c3ccc(P(=O)(O)O)o3)n2CCCCBr)c1C [Compound 13.90, 1-(4-Bromobutyl)-4,5-dimethyl-6-chloro-2-(2-phosphono-5-furanyl)benzimidazole] |  | 212 to 216 °C |  |
| Cc1c(Cl)ccc2c1nc(-c1ccc(P(=O)(O)O)o1)n2CC(C)C [Compound 13.96, 1-Isobutyl-4-methyl-5-chloro-2-(2-phosphono-5-furanyl)benzimidazole] | 0.7 |  |  |
| CC(C)Cn1c(COCP(=O)(O)O)nc2c(N)c(F)cc(Br)c21 [Compound 15.1, 4-Amino-5-fluoro-7-bromo-1-isobutyl-2-(1-methoxymethyl-3-phosphono)benzimidazole] | 1.5 | 200 to 202 °C (dec.) | IC50 (rat hepatocytes; Hepatocyte): 16 µM |
| CC(C)Cn1c(-c2ccc(P(=O)(OCOC(=O)C(C)(C)C)OCOC(=O)C(C)(C)C)o2)nc2c(N)c(Cl)cc(Cl)c21 [Compound 18.2, 4-Amino-5,7-dichloro-1isobutyl-2-(5-furanyl-2-bispivaloyloxymethylphosphonate)benzimidazole] |  |  | IC50 (rat hepatocytes): 17 µM |
| CC(C)Cn1c(-c2ccc(P3(=O)OCC(CO)CO3)o2)nc2ccc(Cl)cc21 (centres unmarked) [Compound 31.13, 6-Chloro-1-isobutyl-2-{5-[2-(hydroxymethyl)-propan-1,3-yl]phosphono-2-furanyl}benzimidazole] |  |  | % Oral bioavailability [1]: 10.9% |
